No end group written: not given here.
Experiments:
[1] = tested on: trypsin-like enzyme biosynthesis in the midgut; assay: Inhibition of trypsin-like enzyme biosynthesis after injection of peptides into ligated abdomens of blood-fed female mosquitoes; type: in vivo, Aedes aegypti; details: for biological activity: against Aedes aegypti, compared with TMOF or among the analogs; for ability to inhibit trypsin-like enzyme biosynthesis: ligated abdomens of female A. aegypti, 24 hours after injection
[2] = Stability in solution of mosquito homogenate (including digestive enzymes); type: in vitro ADME; details: room temperature, two weeks
Excerpt: The compounds of the subject invention are white powders that are highly soluble in water. They can be synthesized on a commercial peptide synthesizer. […] Thus, these peptides are particularly attractive for the control of mosquitoes and other pests. Another advantage of the penta- and octa-peptides of the subject invention is that they are more rapidly absorbed in the insect gut. […] Thus, the novel peptides display a more rapid action, a decreased chance for insect gut enzymes to proteolyze the peptide, and high activity. The peptides were not affected by 1% trifluoroacetic acid and were routinely purified using this acid on HPLC.

Substance | biological activity [1] | ability to inhibit trypsin-like enzyme biosynthesis [1] | activity after standing in mosquito homogenate [2]
YDPAP [Peptide P1, H2 N--YDPAP--COOH] | even greater activity than the octa-peptideP4 | demonstrated an ability to inhibit trypsin-like enzyme biosynthesis | without loss of activity
YDPAPPPPPP [TMOF, reference compound] | – | demonstrated an ability to inhibit trypsin-like enzyme biosynthesis | –
YDPAPPPP [Peptide P4, H2 N--YDPAP4 --COOH] | retains biological activity | demonstrated an ability to inhibit trypsin-like enzyme biosynthesis | –
